Data from ChEMBL document CHEMBL5442219.

Columns and labels:
Settings in all cases: Compound concentration 10 µM
[1] = target: T1, 5-hydroxytryptamine receptor 2C (Homo sapiens) (UniProt P28335)
T1 sequence (whole entry): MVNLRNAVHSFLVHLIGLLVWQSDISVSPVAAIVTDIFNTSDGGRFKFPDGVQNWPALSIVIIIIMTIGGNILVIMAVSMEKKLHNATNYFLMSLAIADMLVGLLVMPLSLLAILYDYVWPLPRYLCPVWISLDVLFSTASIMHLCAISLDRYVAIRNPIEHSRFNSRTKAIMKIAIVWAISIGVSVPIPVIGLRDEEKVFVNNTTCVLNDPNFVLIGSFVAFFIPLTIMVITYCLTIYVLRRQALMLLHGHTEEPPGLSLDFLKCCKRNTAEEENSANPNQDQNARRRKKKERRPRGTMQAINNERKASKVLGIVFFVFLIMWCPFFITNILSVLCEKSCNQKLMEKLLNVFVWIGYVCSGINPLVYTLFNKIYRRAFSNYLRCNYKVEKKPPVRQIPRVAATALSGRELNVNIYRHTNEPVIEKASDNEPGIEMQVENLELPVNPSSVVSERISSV
Description: PDSP Primary Binding target: HTR2C - Compounds are tested at 10 uM concentration, plate are incubated at room temperature in the dark for 90 minutes. Reaction are stopped by vacuum filtration onto 0.3% polyethyleneimine soaked filter mats using Filtermate harvester. Scintilation cocktail is then melted onto microwave-dried filters on a hot plate and the radio activity is counted in Microbia counter.

[2] = target: T2, Alpha-1B adrenergic receptor (Homo sapiens) (UniProt P35368)
T2 sequence (whole entry): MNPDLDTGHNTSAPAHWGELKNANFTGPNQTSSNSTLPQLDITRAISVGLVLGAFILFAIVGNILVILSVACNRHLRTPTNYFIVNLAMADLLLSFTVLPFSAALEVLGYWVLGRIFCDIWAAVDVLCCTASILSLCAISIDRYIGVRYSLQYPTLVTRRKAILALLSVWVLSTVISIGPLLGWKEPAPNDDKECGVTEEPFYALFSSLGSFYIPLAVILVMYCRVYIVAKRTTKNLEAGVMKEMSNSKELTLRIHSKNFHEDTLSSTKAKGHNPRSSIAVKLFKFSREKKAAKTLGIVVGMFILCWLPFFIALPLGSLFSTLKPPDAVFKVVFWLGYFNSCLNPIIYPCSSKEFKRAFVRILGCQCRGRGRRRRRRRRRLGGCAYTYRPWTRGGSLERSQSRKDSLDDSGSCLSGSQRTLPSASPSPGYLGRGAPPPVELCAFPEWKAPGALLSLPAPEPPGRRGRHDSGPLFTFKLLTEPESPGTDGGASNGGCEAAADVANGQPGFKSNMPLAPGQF
Description: PDSP Primary Binding target: ADRA1B - Compounds are tested at 10 uM concentration, plate are incubated at room temperature in the dark for 90 minutes. Reaction are stopped by vacuum filtration onto 0.3% polyethyleneimine soaked filter mats using Filtermate harvester. Scintilation cocktail is then melted onto microwave-dried filters on a hot plate and the radio activity is counted in Microbia counter.

[3] = target: T3, Alpha-1A adrenergic receptor (Homo sapiens) (UniProt P35348)
T3 sequence (whole entry): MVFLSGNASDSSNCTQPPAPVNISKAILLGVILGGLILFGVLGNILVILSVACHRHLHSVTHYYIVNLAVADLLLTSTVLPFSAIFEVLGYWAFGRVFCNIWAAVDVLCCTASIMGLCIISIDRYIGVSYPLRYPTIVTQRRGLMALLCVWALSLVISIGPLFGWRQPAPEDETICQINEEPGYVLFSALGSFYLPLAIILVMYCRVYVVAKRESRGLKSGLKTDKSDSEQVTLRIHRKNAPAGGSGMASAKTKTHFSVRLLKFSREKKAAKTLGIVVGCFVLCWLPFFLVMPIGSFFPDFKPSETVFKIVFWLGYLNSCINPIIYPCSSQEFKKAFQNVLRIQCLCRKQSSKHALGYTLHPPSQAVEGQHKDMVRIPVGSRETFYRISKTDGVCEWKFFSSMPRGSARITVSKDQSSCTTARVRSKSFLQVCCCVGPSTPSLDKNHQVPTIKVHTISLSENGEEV
Description: PDSP Primary Binding target: ADRA1A - Compounds are tested at 10 uM concentration, plate are incubated at room temperature in the dark for 90 minutes. Reaction are stopped by vacuum filtration onto 0.3% polyethyleneimine soaked filter mats using Filtermate harvester. Scintilation cocktail is then melted onto microwave-dried filters on a hot plate and the radio activity is counted in Microbia counter.

[4] = target: T4, 5-hydroxytryptamine receptor 3A (Homo sapiens) (UniProt P46098)
T4 sequence (whole entry): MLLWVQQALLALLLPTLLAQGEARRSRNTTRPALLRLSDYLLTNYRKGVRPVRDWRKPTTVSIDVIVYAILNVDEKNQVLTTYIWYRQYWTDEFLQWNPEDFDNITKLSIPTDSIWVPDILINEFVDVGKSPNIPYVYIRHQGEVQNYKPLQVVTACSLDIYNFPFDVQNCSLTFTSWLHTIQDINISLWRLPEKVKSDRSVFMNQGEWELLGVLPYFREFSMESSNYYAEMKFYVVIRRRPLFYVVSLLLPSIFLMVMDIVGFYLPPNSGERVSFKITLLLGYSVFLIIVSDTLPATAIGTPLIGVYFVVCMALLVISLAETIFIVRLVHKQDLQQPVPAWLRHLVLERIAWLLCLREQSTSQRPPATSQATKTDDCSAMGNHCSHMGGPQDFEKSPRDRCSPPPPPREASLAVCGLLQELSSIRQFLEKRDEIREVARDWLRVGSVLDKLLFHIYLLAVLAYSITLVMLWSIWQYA
Description: PDSP Primary Binding target: HTR3A - Compounds are tested at 10 uM concentration, plate are incubated at room temperature in the dark for 90 minutes. Reaction are stopped by vacuum filtration onto 0.3% polyethyleneimine soaked filter mats using Filtermate harvester. Scintilation cocktail is then melted onto microwave-dried filters on a hot plate and the radio activity is counted in Microbia counter.

[5] = target: Mu-type opioid receptor (Homo sapiens) (UniProt P35372)
Chain of Mu-type opioid receptor (Homo sapiens) (P35372 whole entry): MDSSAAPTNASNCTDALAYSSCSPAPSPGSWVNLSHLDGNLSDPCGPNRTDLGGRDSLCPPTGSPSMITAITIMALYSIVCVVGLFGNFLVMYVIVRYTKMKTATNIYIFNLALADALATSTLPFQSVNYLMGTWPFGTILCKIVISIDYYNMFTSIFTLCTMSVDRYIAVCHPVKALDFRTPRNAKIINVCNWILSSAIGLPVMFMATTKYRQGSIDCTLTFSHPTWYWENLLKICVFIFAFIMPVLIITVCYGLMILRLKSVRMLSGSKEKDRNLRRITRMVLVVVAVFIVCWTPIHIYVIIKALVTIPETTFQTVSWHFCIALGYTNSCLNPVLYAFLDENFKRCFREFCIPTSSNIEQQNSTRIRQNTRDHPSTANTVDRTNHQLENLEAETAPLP
Description: PDSP Primary Binding target: OPRM1 - Compounds are tested at 10 uM concentration, plate are incubated at room temperature in the dark for 90 minutes. Reaction are stopped by vacuum filtration onto 0.3% polyethyleneimine soaked filter mats using Filtermate harvester. Scintilation cocktail is then melted onto microwave-dried filters on a hot plate and the radio activity is counted in Microbia counter.

[6] = target: Translocator protein (Homo sapiens) (UniProt P30536)
Chain of Translocator protein (Homo sapiens) (P30536 whole entry): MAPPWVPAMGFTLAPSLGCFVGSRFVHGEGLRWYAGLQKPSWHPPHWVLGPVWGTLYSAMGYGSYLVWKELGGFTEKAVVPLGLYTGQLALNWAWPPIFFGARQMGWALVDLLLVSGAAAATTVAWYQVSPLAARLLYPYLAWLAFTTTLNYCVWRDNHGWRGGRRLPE
Description: PDSP Primary Binding target: TSPO - Compounds are tested at 10 uM concentration, plate are incubated at room temperature in the dark for 90 minutes. Reaction are stopped by vacuum filtration onto 0.3% polyethyleneimine soaked filter mats using Filtermate harvester. Scintilation cocktail is then melted onto microwave-dried filters on a hot plate and the radio activity is counted in Microbia counter.

[7] = target: T5, Muscarinic acetylcholine receptor M5 (Homo sapiens) (UniProt P08912)
T5 sequence (whole entry): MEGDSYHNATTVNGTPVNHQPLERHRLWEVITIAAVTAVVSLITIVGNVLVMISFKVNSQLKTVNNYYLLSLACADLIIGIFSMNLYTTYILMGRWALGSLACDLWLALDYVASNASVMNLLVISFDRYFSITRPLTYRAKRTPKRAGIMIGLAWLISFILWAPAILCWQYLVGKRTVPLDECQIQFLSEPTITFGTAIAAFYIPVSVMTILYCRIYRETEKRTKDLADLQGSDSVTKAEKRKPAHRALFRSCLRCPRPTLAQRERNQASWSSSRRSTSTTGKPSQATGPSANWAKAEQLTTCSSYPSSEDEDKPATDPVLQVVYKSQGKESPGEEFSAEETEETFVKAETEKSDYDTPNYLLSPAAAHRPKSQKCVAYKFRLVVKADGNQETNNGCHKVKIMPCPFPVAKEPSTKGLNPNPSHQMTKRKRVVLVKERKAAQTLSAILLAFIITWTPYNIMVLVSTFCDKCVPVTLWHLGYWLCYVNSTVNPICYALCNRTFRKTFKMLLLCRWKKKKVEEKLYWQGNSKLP
Description: PDSP Primary Binding target: CHRM5 - Compounds are tested at 10 uM concentration, plate are incubated at room temperature in the dark for 90 minutes. Reaction are stopped by vacuum filtration onto 0.3% polyethyleneimine soaked filter mats using Filtermate harvester. Scintilation cocktail is then melted onto microwave-dried filters on a hot plate and the radio activity is counted in Microbia counter.

[8] = target: 5-hydroxytryptamine receptor 1D (Homo sapiens) (UniProt P28221)
Chain of 5-hydroxytryptamine receptor 1D (Homo sapiens) (P28221 whole entry): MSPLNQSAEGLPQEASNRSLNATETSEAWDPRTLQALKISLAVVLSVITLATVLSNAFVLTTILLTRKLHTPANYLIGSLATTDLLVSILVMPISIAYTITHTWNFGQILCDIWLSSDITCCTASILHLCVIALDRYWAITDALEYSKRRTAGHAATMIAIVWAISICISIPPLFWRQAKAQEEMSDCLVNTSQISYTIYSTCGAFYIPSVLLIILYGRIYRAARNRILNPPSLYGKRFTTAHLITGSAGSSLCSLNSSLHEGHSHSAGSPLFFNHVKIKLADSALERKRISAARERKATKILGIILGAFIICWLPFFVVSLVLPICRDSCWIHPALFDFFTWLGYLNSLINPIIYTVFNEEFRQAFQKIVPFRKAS
Description: PDSP Primary Binding target: HTR1D - Compounds are tested at 10 uM concentration, plate are incubated at room temperature in the dark for 90 minutes. Reaction are stopped by vacuum filtration onto 0.3% polyethyleneimine soaked filter mats using Filtermate harvester. Scintilation cocktail is then melted onto microwave-dried filters on a hot plate and the radio activity is counted in Microbia counter.

[9] = target: Histamine H2 receptor (Homo sapiens) (UniProt P25021)
Chain of Histamine H2 receptor (Homo sapiens) (P25021 whole entry): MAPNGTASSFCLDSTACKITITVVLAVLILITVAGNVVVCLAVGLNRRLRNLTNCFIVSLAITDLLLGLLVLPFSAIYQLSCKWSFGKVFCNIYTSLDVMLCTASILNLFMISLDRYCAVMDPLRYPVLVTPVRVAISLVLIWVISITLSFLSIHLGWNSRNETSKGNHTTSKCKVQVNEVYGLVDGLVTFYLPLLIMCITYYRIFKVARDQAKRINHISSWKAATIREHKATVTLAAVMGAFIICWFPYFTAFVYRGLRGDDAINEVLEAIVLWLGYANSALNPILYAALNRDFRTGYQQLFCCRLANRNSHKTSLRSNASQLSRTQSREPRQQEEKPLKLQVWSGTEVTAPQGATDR
Description: PDSP Primary Binding target: HRH2 - Compounds are tested at 10 uM concentration, plate are incubated at room temperature in the dark for 90 minutes. Reaction are stopped by vacuum filtration onto 0.3% polyethyleneimine soaked filter mats using Filtermate harvester. Scintilation cocktail is then melted onto microwave-dried filters on a hot plate and the radio activity is counted in Microbia counter.

Structure (SMILES)	inhibition [1] [%]	inhibition [2] [%]	inhibition [3] [%]	inhibition [4] [%]	inhibition [5] [%]	inhibition [6] [%]	inhibition [7] [%]	inhibition [8] [%]	inhibition [9] [%]
OCc1cc(C(O)CNCCCCCCOCCCCc2ccccc2)ccc1O (configuration not stated)	60.6	47.7	77	4.21	6.99	-0.39	60.2	76.6	
Cc1nn(C)c(C)c1-c1cccc2c1CC[C@H](N(C)C)C2	13.1	1.62	15.3	85.9	14.6		69.2	95.6	
O=C(O)COc1cccc(CN(Cc2ccc(-n3cccn3)cc2)S(=O)(=O)c2cccnc2)c1	29.9	-5.67	-1.12		-4.37	11.1	-5.22		3.71
CN[C@@H]1CCc2[nH]c3ccc(C(N)=O)cc3c2C1	18.2	93.5	11.8	24.7	54.7	-4.51	-1.58	72.3	
CN1C[C@H](C(=O)N[C@]2(C)O[C@@]3(O)[C@@H]4CCCN4C(=O)[C@H](Cc4ccccc4)N3C2=O)C[C@@H]2c3cccc4[nH]cc(c34)C[C@H]21	103	93.8	99.4	1.05	58.1	19	7.31	98.8	
COc1ccc(NC(=O)c2ccc(-c3ccc(-c4noc(C)n4)cc3C)cc2)cc1OCCN(C)C	98.3	26.8	17.3	5.18	5.21	31.1	37.9	101	
CCc1nn(CCCN2CCN(c3cccc(Cl)c3)CC2)c(=O)n1CCOc1ccccc1	102	97.5	96	3.68	32.2	64.2	30.8	100	
O=C(O)c1cc(-c2ccc(C3CCNCC3)cc2)c2ccc(-c3ccc(C(F)(F)F)cc3)cc2c1	-3.35	38.4		21.6	26.5	21.7	51.9	73.1	
CN1CCC(=C2c3ccccc3CC(=O)c3sccc32)CC1	93.2	1.66	9.71	84.5	15.9	6.55	93.2	123	
CC(C)[C@H](CO)Nc1nc(Nc2cccc(Cl)c2)c2ncn(C(C)C)c2n1	51	12.9	1.19	25.4	9.06	76.5	21.1	60.1	
CCc1cc2c(cc1CC)CC(NC[C@H](O)c1ccc(O)c3[nH]c(=O)ccc13)C2	66.8	59	84.1	-4.69	21		37.8	118	
C[N+]1(C)[C@@H]2C[C@@H](OC(=O)C(O)(c3cccs3)c3cccs3)C[C@H]1[C@@H]1O[C@@H]12	-6.52	-7.35	3.89	14.3	10.3	66.3	97.4	32.9	
CN1CCN(c2ccc(Nc3c4ccccc4nc4ccccc34)cc2)CC1	16.7	53.5	50.9	32	12.4	6	42.3	54.3	
COc1ccccc1N1CCN(CCCCNC(=O)c2ccc3ccccc3c2)CC1	97.9	96.8	98.8	0.02	79.8	78.8	23.2	103	
Clc1cccc(Cl)c1NC1=NCCN1	55.7	65.3	69	5.96	3.84	10.8	0.71	29.5	
CN1CCC(C(=O)c2cccc(NC(=O)c3c(F)cc(F)cc3F)n2)CC1	6.11	8.88	17.6	20.9	10.5		64	80.7	
Cc1cc(NC(=O)NCCN2CCC(O)(Cc3ccccc3)CC2)c2ccccc2n1	92.3	26.1	23.9	4.17	43.3	44.3	44	91.7	
CC(C)NCC(O)COc1cccc2[nH]ccc12 (configuration not stated)	7.77	6.47	32	-0.98	16.8	38.5	10.5	50.9	
CN(C)C(=O)N[C@H]1CC[C@H](CCN2CCN(c3cccc(Cl)c3Cl)CC2)CC1	97.3	83.4	89.1	6.73	4.29	29	59.3	101	
O=c1ccc2ccc(OCCCCN3CCN(c4cccc5sccc45)CC3)cc2[nH]1	103	97.3	100	81.9	26.8	-2.98	38.2	104	
CCCCCCCCCCCCC/C=C/[C@@H](O)[C@@H](N)COP(=O)(O)O	-2.94	-1.45		-1.93	30.4	64.6	6.31	63.5	
